According to US12227514B2, “Crystal forms of thiophene derivatives” (TIANJIN HEMAY PHARMACEUTICAL CO., LTD., priority 2018, dated 2025):

Experiments:
Assay type in all cases: physicochemical
[1] = Dissolution rate in water; details: about 25 mg in 900 mL water, 37° C., rotating speed 100/minute
Method: The crystal form I of (S)—N-[5-[1-(3-ethoxy-4-methoxyphenyl)-2-(methylsulfonyl)ethyl]-4,6-dioxo-5,6-dihydro-4H-thieno[3,4-c]pyrrole-1-yl]acetamide prepared according to the process in Example 1 was tested.
About 25 mg of crystal form I of (S)—N-[5-[1-(3-ethoxy-4-methoxyphenyl)-2-(methylsulfonyl)ethyl]-4,6-dioxo-5,6-dihydro-4H-thieno[3,4-c]pyrrole-1-yl]acetamide was added to 900 mL of water. The mixture was stirred at a rotating speed of 100/minute at 37° C. for 90 minutes. The supernatant was filtered and diluted. The concentration of the diluted solution (a mg/mL) was determined by ultraviolet spectrophotometer. The dissolution rate was calculated according to the formula 900a/25×100%.

[2] = Pressure stability (tablet press, DSC); details: single punch tablet press, tablet diameter 6 mm, hardness 25-30 N
Method: Crystal form I of (S)—N-[5-[1-(3-ethoxy-4-methoxyphenyl)-2-(methylsulfonyl)ethyl]-4,6-dioxo-5,6-dihydro-4H-thieno[3,4-c]pyrrole-1-yl]acetamide was pressed by tablet press machine with single punch. The diameter of the tablet was 6 mm and the hardness was 25-30 N. DSC test was carried out on pressed powder.

[3] = High temperature stability and high temperature and high humidity stability; details: for Relevant Substance Contents after 1 Month: storage at 40° C.
Method: High Temperature Stability and High Temperature and High Humidity Stability Crystal form I of (S)—N-[5-[1-(3-ethoxy-4-methoxyphenyl)-2-(methylsulfonyl)ethyl]-4,6-dioxo-5,6-dihydro-4H-thieno[3,4-c]pyrrole-1-yl]acetamide was placed at 40° C. (high temperature) or at 40° C. and Rh=75% (high temperature and high humidity) for 1 month. Relevant substance contents of crystal form I of (S)—N-[5-[1-(3-ethoxy-4-methoxyphenyl)-2-(methylsulfonyl)ethyl]-4,6-dioxo-5,6-dihydro-4H-thieno[3,4-c]pyrrole-1-yl]acetamide were tested after 1 month.

[4] = Moisture absorption stability; details: RH=80%
Method: (§1) Crystal form I of (S)—N-[5-[1-(3-ethoxy-4-methoxyphenyl)-2-(methylsulfonyl)ethyl]-4,6-dioxo-5,6-dihydro-4H-thieno[3,4-c]pyrrole-1-yl]acetamide was placed in a drier containing saturated ammonium chloride solution (RH=80%) until weight was balanced. The crystal form stability of (S)—N-[5-[1-(3-ethoxy-4-methoxyphenyl)-2-(methylsulfonyl)ethyl]-4,6-dioxo-5,6-dihydro-4H-thieno[3,4-c]pyrrole-1-yl]acetamide was tested after weight was balanced.

Illumination stability = experiment: Illumination stability
Method: as §1, with “4500 lux of illumination box for 1 month. Crystal” for “drier containing saturated ammonium chloride solution (RH=80%) until weight was balanced. The crystal”, “1 month.” for “weight was balanced.”

- Dissolution Rate ([1]; time 15 min): 40.0%
- Dissolution Rate ([1]; time 30 min): 55.9%
- Dissolution Rate ([1]; time 45 min): 65.2%
- Dissolution Rate ([1]; time 60 min): 71.4%
- Dissolution Rate ([1]; time 75 min): 75.5%
- Dissolution Rate ([1]; time 90 min): 78.0%
- Pressure stability (DSC curve of pressed powder compared with FIG. 2) [2]: good stability
- Chemical stability under high temperature and high-temperature and high-humidity conditions ([3]; 40° C. or 40° C. and RH 75%, 1 month): good chemical stability
- Relevant Substance Contents at Day 0 ([3]; before storage): 0.06%
- Relevant Substance Contents after 1 Month [3]: 0.07%
- Relevant Substance Contents after 1 Month ([3]; RH = 75%): 0.09%
- Crystal form stability under high humidity conditions [4]: good crystal form stability
- Relevant Substance Contents after 1 Month (Illumination stability; 4500 lux illumination box): 0.06%
- Chemical stability under illumination conditions (Illumination stability; 4500 lux, 1 month): good chemical stability
- Relevant Substance Contents at Day 0 (Illumination stability; before illumination): 0.06%
Structure (SMILES): CCOc1cc([C@@H](CS(C)(=O)=O)N2C(=O)c3csc(NC(C)=O)c3C2=O)ccc1OC [crystal form I, (S)—N-[5-[1-(3-ethoxy-4-methoxyphenyl)-2-(methylsulfonyl)ethyl]-4,6-dioxo-5,6-dihydro-4H-thieno[3,4-c]pyrrole-1-yl]acetamide]
